Measured values taken from US20230355586A1, “Application of Valdecoxib in preparation of medications for preventing and treating glaucoma” (Central South University, priority 2022, published 2023).
Entries after “also recorded” stand apart in the source; their conditions may differ.

Assays:
[1] = system: PERK-ATF4-CHOP pathway; experiment: Western blot of ER stress, PERK-ATF4-CHOP pathway and apoptosis proteins in R28 OGD/R model; format: cell-based, rat; conditions: R28 cells
[2] = system: R28 cells; experiment: Cell death of R28 cells pretreated with CCT020312; format: cell-based, rat; conditions: R28 cells pretreated with different concentrations of CCT020312
[3] = system: PERK-ATF4-CHOP pathway; experiment: Western blot of retina lysates in retinal I/R model; format: in vivo, rats; conditions: rat retina
Protocol: Through animal ethics, cell culture, animal selection, reagent and antibody information, anterior chamber compression rat model is established, […] cell OGD/R (oxygen-glucose deprivation/reoxygenation) model is established; HE (hematoxylin-eosin) staining, apoptosis by TUNEL (TdT-mediated dUTP Nick-End Labeling) detection, cell viability by CCK8 (Cell Counting Kit-8), Western blot assay, Annexin V-FITC/PI flow cytometry, PI/Hoechest staining and immunofluorescence assay are performed. […] The expression levels of the apoptosis-related proteins are examined in the control, I/R, I/R+DMSO and I/R+valdecoxib groups. […] The expression levels of p-PERK, cleaved caspase 3 and GRP78 in RGCs are evaluated by immunofluorescence.

[4] = system: retina / RGCs (retinal ganglion cells); experiment: HE staining of retina in acute high intraocular pressure (aHIOP) retinal I/R model; format: in vivo, SD (Sprague-Dawley) rats; conditions: rat I/R model, 3 days post-injury, intravitreal injection
Protocol: (§1) Through animal ethics, cell culture, animal selection, reagent and antibody information, anterior chamber compression rat model is established, R28 cell OGD/R (oxygen-glucose deprivation/reoxygenation) model is established; HE (hematoxylin-eosin) staining, apoptosis by TUNEL (TdT-mediated dUTP Nick-End Labeling) detection, cell viability by CCK8 (Cell Counting Kit-8), Western blot assay, Annexin V-FITC/PI flow cytometry, PI/Hoechest staining and immunofluorescence assay are performed.
(§2) In order to evaluate the potential therapeutic prospect of VAL for saving RGCs (retinal ganglion cells) in glaucoma retinal injury, the glaucoma retinal IR is simulated by performing an aHIOP (acute high intraocular pressure) model on SD (Sprague-Dawley) rats. The rats are sacrificed and their eyeballs are removed at 1, 3 or 7 days post-IRI. HE staining is performed to detect the morphological changes in the retina. It is discovered that, compared to the control group, the retinas from 3 and 7 days post-IRI are markedly thinner. Additionally, lost RCGs or their disordered arrangement is observed at 3 and 7 days after IRI when compared with the control retina, as shown in FIGS. 2A and 2B. Next, the valdecoxib's effect on the RGCs in the FR model by HE staining and immunofluorescence. […] A TUNEL assay is performed to clarify whether valdecoxib's protective effect involves the anti-apoptosis mechanism. […]

[5] = system: RGCs (retinal ganglion cells); experiment: TUNEL/RBPMS apoptosis assay of retina in aHIOP retinal I/R model; format: in vivo, SD (Sprague-Dawley) rats; conditions: rat I/R model, compared to the I/R group
Protocol: as §1, §2

[6] = system: R28 cells; experiment: Annexin V-FITC/PI flow cytometry apoptosis in R28 OGD/R model; format: cell-based, rat; conditions: vs. OGD/R group
Protocol: (§3) Through animal ethics, cell culture, animal selection, reagent and antibody information, anterior chamber compression rat model is established, […] cell OGD/R (oxygen-glucose deprivation/reoxygenation) model is established; HE (hematoxylin-eosin) staining, apoptosis by TUNEL (TdT-mediated dUTP Nick-End Labeling) detection, cell viability by CCK8 (Cell Counting Kit-8), Western blot assay, Annexin V-FITC/PI flow cytometry, PI/Hoechest staining and immunofluorescence assay are performed. The cell death rate at multiple time points with the OGD/R model is detected using PI staining. PI-positive cells are identified as dead cells. The proportion of PI-positive cells at multiple time points are calculated. […] To identify whether the valdecoxib's effect involved an anti-apoptosis mechanism, FCM (flow cytometry) is performed, and a further analysis indicates both that OGD/R induced cell apoptosis and the valdecoxib decreases the cell apoptosis rate, as shown in FIGS. 1E-1H.

[7] = system: R28 cells; experiment: CCK-8 cell viability in R28 OGD/R model; format: cell-based, rat; conditions: 2 h post-OGD/R, vs. OGD/R group
Protocol: as §3

[8] = I/R, pretreated with valdecoxib

## CCN(CC)CCC(=O)N1N=C(c2c(-c3ccccc3)c3cc(Br)ccc3[nH]c2=O)CC1c1ccc(Br)cc1 (centres unmarked) [CCT020312]
[1]; CCT020312 pre-treated group
  bax expression level (Western blot): consistent with those of the PERK-ATF4-CHOP pathway proteins
  cleaved caspase 3 expression level (Western blot): consistent with those of the PERK-ATF4-CHOP pathway proteins
[1]; valdecoxib pretreatment prior to CCT020312, vs. OGD/R+VAL
  expression of markers of ER stress and the PERK-ATF4-CHOP pathway (Western blot): reverses the valdecoxib's effects, increasing the expression
[2]
  cell death: no significant cell death

## Cc1onc(-c2ccccc2)c1-c1ccc(S(N)(=O)=O)cc1 [valdecoxib]
[3]; I/R injury
  bax expression (Western blot): decreases the expression
  bcl-2 expression (Western blot): opposite of that of the bax and cleaved caspase 3
  cleaved caspase 3 expression (Western blot): decreases the expression
[3]; [8]
  ATF4 expression level (Western blot): reduced
  CHOP expression level (Western blot): reduced
  GRP78 expression (Western blot): consistent with the PERK-ATF4-CHOP pathway proteins
  p-PERK expression level (Western blot): reduced
[1]; valdecoxib pretreatment
  ATF4 protein level (Western blot): decrease the expression; also recorded: significantly reduces
  CHOP protein level (Western blot): decrease the expression; also recorded: significantly reduces
  GRP78 protein level (Western blot): decrease the expression; also recorded: significantly reduces
  bax protein level (Western blot): decreased; also recorded: significantly reduces
  bcl-2 protein expression (Western blot): opposite to that of the bax and cleaved caspase 3
  cleaved caspase 3 protein level (Western blot): decreased; also recorded: significantly reduces
  p-PERK protein level (Western blot): decrease the expression; also recorded: significantly reduces
[4]
  RGCs' survival rate: significantly increases
  retinal thickness (HE staining): significantly increases
[5]
  TUNEL-positive RGCs: reduced
[6]
  cell apoptosis rate (flow cytometry): decreases
[7]; 1 μmol/L
  cell survival rate (CCK-8): significantly elevates
[7]; 1 μmol/L, listed as VAL
  cell survival rate (CCK-8): significant increase
[7]; 5 μmol/L
  cell survival rate (CCK-8): significantly elevates
[7]; 5 μmol/L, listed as VAL
  cell survival rate (CCK-8): significant increase
